What was measured:
Oprm1^−/− mice = test: Marble-burying; assay type: in vivo, mouse
Description: (§1) Mice were treated with vehicle (NaCl 0.9%; ip, 10 or 20 ml/kg), NaBr (Sigma-Aldrich, Saint-Quentin Fallavier, France) administered either chronically (once a day, 10, 30, 70, 125, 250 and 500 mg/kg; i.p. or per os, in a volume of 20 ml/kg—except for combination with VU0155041: […]) or acutely (250 mg/kg, 20 ml/kg), KBr (Sigma-Aldrich, Saint-Quentin Fallavier, France; 145 mg/kg; i.p., 20 ml/kg), bumetanide (R&D systems, Minneapolis, USA, 0.5 and 2 mg/kg; i.p., 20 ml/kg) or VU0155041 (Cayman Chemicals, Ann Arbor, USA, once a day, i.p., 1 mg/kg, 10 ml/kg). […] When treatment was given chronically, behavioral testing started 8 days after beginning of daily administration. Treatment was maintained for 8 to 18 consecutive days (see timelines in FIGS. 1 and 4), allowing thorough behavioral phenotyping. On testing days, or when treatment was given acutely, drugs (or vehicle) were administered 30 min before behavioral assays.
(§2) Marble-burying. Marble burying was used as a measure of perseverative behavior (68). Mice were introduced individually in transparent cages (21×11×17 cm) containing 20 glass marbles (diameter: 1.5 cm) evenly spaced on 4-cm deep fresh sawdust. To prevent escapes, each cage was covered with a filtering lid. Light intensity in the room was set at 40 lux. The animals were removed from the cages after 15 min, and the number of marbles buried more than half in sawdust was quoted.

Fmr1^−/− mice = test: Marble-burying; assay type: in vivo, mouse; settings: Fmr1+/+ and Fmr1−/− mice; chronic NaBr 250 mg/kg once daily
Description: as §1, §2
(§3) To this purpose, we evaluated the effects of chronic NaBr administration at the dose of 250 mg/kg on autism-sensitive behaviors in these lines (FIG. 3A).

Shank3^Δex13-16−/− mice = test: Marble-burying; assay type: in vivo, mouse; settings: Shank3Δex13-16−/− and WT mice, chronic NaBr 250 mg/kg once daily
Description: as §1, §2, §3

[1] = stated in conclusion, no data; cited from earlier work
rat mGlu4 receptor = biological target: T1, rat mGlu4 receptor (Rattus norvegicus, UniProt P31423); test: Calcium mobilization assay, mGlu4 signaling under glutamate stimulation; assay type: cell-based
T1 construct: expressed in transfected cells
T1 sequence (P31423 33-912): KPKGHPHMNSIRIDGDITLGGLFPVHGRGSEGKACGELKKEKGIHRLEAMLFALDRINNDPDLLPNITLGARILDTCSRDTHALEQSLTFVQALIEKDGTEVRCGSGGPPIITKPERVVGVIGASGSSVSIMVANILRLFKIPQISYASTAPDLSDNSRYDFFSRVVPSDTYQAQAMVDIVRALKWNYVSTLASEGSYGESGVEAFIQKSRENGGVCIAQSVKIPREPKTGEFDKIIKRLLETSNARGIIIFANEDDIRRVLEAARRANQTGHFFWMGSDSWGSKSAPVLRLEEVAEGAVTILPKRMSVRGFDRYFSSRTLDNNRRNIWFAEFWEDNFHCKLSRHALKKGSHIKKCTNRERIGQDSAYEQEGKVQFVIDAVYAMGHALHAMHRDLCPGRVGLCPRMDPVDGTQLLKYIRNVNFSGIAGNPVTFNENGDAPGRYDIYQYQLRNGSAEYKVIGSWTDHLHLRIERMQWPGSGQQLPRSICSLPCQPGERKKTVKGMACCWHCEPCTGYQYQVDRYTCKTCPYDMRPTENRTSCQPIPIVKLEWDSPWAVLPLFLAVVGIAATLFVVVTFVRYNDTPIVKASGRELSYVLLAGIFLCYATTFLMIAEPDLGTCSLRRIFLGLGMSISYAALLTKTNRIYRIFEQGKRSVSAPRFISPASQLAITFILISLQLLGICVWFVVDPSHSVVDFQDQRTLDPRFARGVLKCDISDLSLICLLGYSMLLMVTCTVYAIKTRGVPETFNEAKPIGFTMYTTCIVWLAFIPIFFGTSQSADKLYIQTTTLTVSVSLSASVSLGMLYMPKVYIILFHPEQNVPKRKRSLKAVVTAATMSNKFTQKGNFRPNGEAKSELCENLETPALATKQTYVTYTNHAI
Description: Human embryonic kidney (HEK) 293 cells were transiently transfected with rat mGlu4 receptor by electroporation together with a chimeric Gi/Gq protein to allow phospholipase activation and EAAC1, a glutamate transporter, to avoid influence of extracellular glutamate. For calcium mobilization, cells were seeded in a PLO-coated, black-walled, clear-bottomed. 96-well plate (Greiner Bio-One) at the density of 100,000 cells per well and for IPOne assay in a PLO-coated black 96-well plate (Greiner Bio-One) at the density of 50,000 cells per well. Cells were cultured in DMEM (Gibco™, Life Technologies), supplemented with 10% fetal bovine serum. Medium was changed by GlutaMAX (Gibco™, Life Technologies) to reduce extracellular glutamate concentration 3 h before experiment.
Chloride and bromide ion concentrations in the buffers used for in vitro experiments were chosen for best matching physiological conditions. It was previously shown that the total amount of halogen (chloride and bromide ions) in the cerebrospinal fluid and serum can reach 120-130 mM (69, 70) and that bromide is able to substitute up to 30% of chloride concentration (71), leading to a theoretical concentration of 91 mM chloride and 36 mM bromide. We thus chose the dose of 100 mM chloride as physiological control (complemented with gluconate NaC6H11O7 to maintain equivalent osmolarity between buffers (56)), and added or not 50 mM chloride or bromide to assess their effects in vitro. Chemicals were purchased from Sigma-Aldrich (Merck, L'Isle D'Abeau Chesnes, France). The pH of all buffers was adjusted to 7.4 before experiments. […]
Calcium mobilization assay: 24 h after transfection, cells were loaded with 1 μM calcium-sensitive fluorescent dye (Fluo-4 AM; Invitrogen, Life Technologies) diluted in fresh C1^− buffer (154.6 mM) for 1 h at 37° C. and 5% CO2. […] Ca^2+ release was determined using μCell FDSS (Hamamatsu Photonics). Fluoresence was recorded for 60 s at 480 nm excitation and 540 nm emission after 20 s record of baseline.
Data were analyzed using Prism 6 software (GraphPad Software, San Diego, CA, USA). […] Statistical differences between pEC50, ΔpEC50 and Emax were determined using a one-way analysis of variance followed by Tukey's post-test.
We measured mGlu4 signaling under glutamate stimulation in HEK293T cells transiently expressing mGlu4 receptors and Gαqi9, a Gi/Gq chimeric G-protein (57) that allows mGlu4 to activate the phosphoinositide pathway. Receptor activation was then evaluated by measuring intracellular Ca^2+ release or inositol monophosphate (IP1, FIG. 5A). […]

[Br-].[Na+] [NaBr, sodium bromide]
excessive marble burying (Oprm1^−/− mice; Oprm1−/− mice, chronic NaBr 10-500 mg/kg or bumetanide 0.5 and 2 mg/kg): did not suppressed excessive burying in mutant mice | number of buried marbles, global treatment effect (Oprm1^−/− mice; both mouse lines, chronic NaBr): globally increased burying | number of buried marbles (Fmr1^−/− mice): reduced the number of buried marbles in both Fmr1^+/+ and Fmr1^−/− mice | marble burying (Shank3^Δex13-16−/− mice): had no effect on reduced burying in Shank3^Δex13-16−/− mice | marble burying (Shank3^Δex13-16−/− mice; listed as bromide): decreased burying in both mutant and WT mice | brain penetrance [1]: excellent | oral bioavailability [1]: excellent oral bioavailability | increase in glutamate pEC50 (rat mGlu4 receptor; HEK293 cells, mGlu4 + Gαqi9, addition of 50 mM bromide versus physiological chloride (100 mM Cl− + 50 mM gluconate)): 0.73±0.05 log | ΔpEC50 of glutamate, bromide versus equivalent concentration of chloride (rat mGlu4 receptor; HEK293 cells, mGlu4 + Gαqi9, compared with +50 mM Cl−): 0.27±0.04 | rise in maximal mGlu4-triggered calcium release (Emax) (rat mGlu4 receptor; HEK293 cells, mGlu4 + Gαqi9, glutamate, bromide versus physiological chloride): 65±9% | modulation of mGlu4 (PAM behaviour) (rat mGlu4 receptor; calcium mobilization assay, 100 mM Cl− + 50 mM Br−, broader effects than chloride ions on pEC50 and Emax): behave as PAM of mGlu4

From US20240366539A1, “METHODS FOR TREATING AUTISM SPECTRUM DISORDERS” (INSTITUT NATIONAL DE LA SANTÉ ET DE LA RECHERCHE MÉDICALE, priority 2021, published 2024)
